The values that follow are results of earlier work, collected in patent publication US20100075916A1, “SUBSTITUTED QUINAZOLINE INHIBITORS OF GROWTH FACTOR RECEPTOR TYROSINE KINASES” (AUSPEX PHARMACEUTICALS, INC., priority 2008, published 2010).

For series [1] the following is noted: vandetanib administration.
For series [2] the following is noted: humans.

As for `COc1cc2c(Nc3ccc(Br)cc3F)ncnc2cc1OCC1CCN(C)CC1` [Vandetanib, N-(4-bromo-2-fluoro-phenyl)-6-methoxy-7-[(1-methyl-4-piperidyl)methoxy]quinazolin-4-amine], the common side effects entry in series [1] was “rash, diarrhea, QTc prolongation, hypertension, and neutropenia”. For the same molecule, in series [2], the elimination halflife entry was “approximately 120 hours” and the volume of distribution result was “large volume of distribution”. The “lag time before the drug is detectable in plasma” value in series [2] (after oral administration) was 0.801 h. Also, the “Ka (absorption)” value in series [2] (oral administration) is 0.476 h⁻¹.
